# Assay results taken from patent US20060127400A1, “Activation of regulatory T cells by alpha-melanocyte stimulating hormone” (THE SCHEPENS EYE RESEARCH INSTITUTE, INC., priority 1999, published 2006).
# No end group written: not given here.
# Legend:
# primed Th1 cells = experiment: in vitro regulatory T cell activity assay (IFN-γ of freshly activated primed Th1 cells in coculture); assay type: cell-based, mouse (BALB/c)
# Procedure: Assay For In Vitro Regulatory T Cell Activity. The α-MSH-treated TCR-stimulated T cells, as described above, were cultured for 48 hours. The plate was spun down at 250×g for 10 minutes and supernatant discarded. Freshly isolated, enriched in vivo primed Th1 cells (4×10^6 cells/ml) mixed with 2C11 (1 μg/ml) were added (200 μl) to the wells of the α-MSH pre-treated, TCR-stimulated T cells and incubated for 48 hours. The culture supernatant was assayed for IFN-γ by sandwich ELISA. For long term cultures, primed T cells were TCR-stimulated in the presence of α-MSH for 48 hours. The plate was centrifuged and supernatant was exchanged for 200 μl of 2C11 (1 μg/ml) in fresh media, no x-MSH. The cultures were incubated for 72 hours and the conditioned media was again exchanged for fresh media and 2C11 antibody. The cultures were incubated for an additional 48 hours, centrifuged, supernatant discarded, and added were fresh in vivo primed Th1 cells and 2C11 antibody. Soluble TGF-β receptor II (sTGF-βRII, R&D Systems) was added to some of the cultures. These cultures were incubated for 48 hours and the culture supernatant was assayed for IFN-γ by sandwich ELISA.
# Primed T cells (4×10^5 cells) were enriched and activated with anti-CD3 in the presence (α-MSH+anti-CD3) or absence (+anti-CD3) of α-MSH (30 pg/ml). After 48 hours of incubation the cells were mixed with freshly enriched primed Th1 cells (4×10^5 cells) and anti-CD3 antibody and cultured for 48 hours. The culture supernatant was assayed for IFN-γ by sandwich ELISA. Results are presented as IFN-γ pg/ml±SEM of eight independent experiments.
# In addition, T cells initial TCR-stimulated in the presence of α-MSH and subsequently restimulated twice (Day 2 and Day 5) with anti-TCR antibody in the absence of α-MSH, still suppressed IFN-γ production by freshly activated primed Th1 cells (FIG. 6). […] Primed T cells (4×10^5 cells) were enriched and activated with anti-CD3 antibody in the presence of 30 pg/ml α-MSH (α-MSH+anti-CD3) or absence of α-MSH (+anti-CD3). After 48 hours of incubation the cells were centrifuged and resuspended in fresh media with anti-CD3 antibodies and incubated for 72 hours (day 5). The cells were again washed and re-stimulated with anti-CD3 and incubated for an additional 48 hours (day 7). After the final incubation the treated T cells (4×10^5 cells) were mixed with freshly enriched primed Th1 cells (4×10^5 cells) and anti-CD3 antibody and cultured for 48 hours. The culture supernatant was assayed for IFN-γ by sandwich ELISA. Results are presented as IFN-γ pg/ml±SEM of eight independent experiments. […] Therefore, α-MSH mediates induction of functionally active, regulatory Th3 cells.
# TGF-β and α-MSH induce regulatory T cell activity. Primed T cells were TCR-stimulated in the presence or absence of 30 pg/ml α-MSH with TGF-β1 or TGF-β2 (5.0 ng/ml) added 4 hours after TCR-stimulation. The treated T cells (Regulatory T cells) were added to cultures of freshly activated primed T cells. Culture supernatants were assayed for IFN-γ 48 hours after addition of treated T cells. Data are presented as percent suppression±SEM of IFN-γ produced by freshly activated T cells with no added regulatory cells, from eight independent experiments.
# [1] = test system: experimental autoimmune uveitis; experiment: EAU, α-MSH injected i.v. at the time of peak retinal inflammation; assay type: in vivo, mouse
# EAU = settings: direct injections into eyes of mice; cited from earlier work
substance,measurement,setting,value
"α-melanocyte stimulating hormone (SYSMEHFRWGKPV; not fully specified; ends and bridges not checked; UniProt P01189 138-150, looked up) [α-MSH, synthetic α-MSH (Peninsula Laboratories); thirteen-amino acid neuropeptide derived from POMC]","IFN-γ in cocultures with T cells initially activated in the presence of α-MSH, long term","primed Th1 cells; α-MSH 30 pg/ml only at first stimulation, restimulated Day 2 and Day 5 without α-MSH, then coculture 48 h",significantly (p=0.05) suppressed
same,"induction of regulatory T cell activity (suppression of IFN-γ of other Th1 cells), factor individually",primed Th1 cells; α-MSH 30 pg/ml or TGF-β 5.0 ng/ml,induced regulatory T cell activity
same,severity of experimental autoimmune uveitis (EAU),[1],significantly suppressed
same,severity of inflammation and recovery in EAU,EAU,suppress the severity of the inflammation and accelerate recovery
